# Structures can show the parent of a compound that is named as a salt. Calls of active or inactive are those of the source.
# Assays:
# [1] = target: T1, Corticotropin-releasing factor receptor 2/Corticotropin-releasing factor-binding protein (Homo sapiens, UniProt P24387+Q13324); experiment: Dose Response confirmation of uHTS hits for small molecule antagonists of the CRF-binding protein and CRF-R2 receptor complex.; assay type: functional; conditions: read-out: IC50_Mean
# T1 sequence (Q13324 whole entry): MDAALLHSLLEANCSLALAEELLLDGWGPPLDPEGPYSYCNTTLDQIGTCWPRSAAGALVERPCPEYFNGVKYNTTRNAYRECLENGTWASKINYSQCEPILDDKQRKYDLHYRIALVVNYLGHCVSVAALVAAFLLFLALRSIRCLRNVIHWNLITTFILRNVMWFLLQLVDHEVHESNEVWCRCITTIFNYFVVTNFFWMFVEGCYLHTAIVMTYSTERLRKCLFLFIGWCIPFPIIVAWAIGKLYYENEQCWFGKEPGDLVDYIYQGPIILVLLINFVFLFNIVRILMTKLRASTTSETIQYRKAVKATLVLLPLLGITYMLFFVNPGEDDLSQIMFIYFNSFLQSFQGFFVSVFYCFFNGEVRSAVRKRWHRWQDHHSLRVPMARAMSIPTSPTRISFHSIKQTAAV
# T1 sequence (P24387 whole entry): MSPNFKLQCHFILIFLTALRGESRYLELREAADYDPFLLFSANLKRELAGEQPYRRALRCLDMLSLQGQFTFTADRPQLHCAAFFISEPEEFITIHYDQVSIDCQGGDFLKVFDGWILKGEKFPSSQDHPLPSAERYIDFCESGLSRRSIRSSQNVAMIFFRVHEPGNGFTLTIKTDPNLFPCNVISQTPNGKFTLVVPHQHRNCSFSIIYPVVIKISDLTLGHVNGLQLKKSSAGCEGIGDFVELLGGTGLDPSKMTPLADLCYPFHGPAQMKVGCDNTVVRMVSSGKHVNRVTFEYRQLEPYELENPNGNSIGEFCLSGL
# [2] = target: T1, Corticotropin-releasing factor receptor 2/Corticotropin-releasing factor-binding protein; experiment: activators of CRF receptor 2 with binding protein – uHTS hits, confirmation (AID 602473); assay type: functional; conditions: read-out: EC50_Mean
# Streptococcus = experiment: GAS UMAA2166 growth inhibition – luminescence, BacTiterGlo, counter-screen for streptokinase expression inhibitor project, dose response (AID 1915); assay type: functional, organism-based;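 further: potency for reduction of bacterial viability or growth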
# [3] = test system: Streptococcus sp. 'group A'; experiment: Streptococcus pyogenes SK(-)GAS viability under kanamycin – luminescence, BacTiterGlo, confirmation, counter-screen for streptokinase expression inhibitor project, dose response (AID 1900); assay type: functional, organism-based
# Cytochrome P450 2C9 = Cytochrome P450 2C9 (Homo sapiens, UniProt P11712)
# Cytochrome P450 3A4 = Cytochrome P450 3A4 (Homo sapiens, UniProt P08684);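 further: CYP3A4 tested as one member of a cytochrome P450 panel screen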
# Cytochrome P450 1A2 = target: T2, Cytochrome P450 1A2 (Homo sapiens, UniProt P05177);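 further: PubChem cytochrome P450 panel assay, CYP1A2 panel member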
# T2 sequence (P05177 whole entry): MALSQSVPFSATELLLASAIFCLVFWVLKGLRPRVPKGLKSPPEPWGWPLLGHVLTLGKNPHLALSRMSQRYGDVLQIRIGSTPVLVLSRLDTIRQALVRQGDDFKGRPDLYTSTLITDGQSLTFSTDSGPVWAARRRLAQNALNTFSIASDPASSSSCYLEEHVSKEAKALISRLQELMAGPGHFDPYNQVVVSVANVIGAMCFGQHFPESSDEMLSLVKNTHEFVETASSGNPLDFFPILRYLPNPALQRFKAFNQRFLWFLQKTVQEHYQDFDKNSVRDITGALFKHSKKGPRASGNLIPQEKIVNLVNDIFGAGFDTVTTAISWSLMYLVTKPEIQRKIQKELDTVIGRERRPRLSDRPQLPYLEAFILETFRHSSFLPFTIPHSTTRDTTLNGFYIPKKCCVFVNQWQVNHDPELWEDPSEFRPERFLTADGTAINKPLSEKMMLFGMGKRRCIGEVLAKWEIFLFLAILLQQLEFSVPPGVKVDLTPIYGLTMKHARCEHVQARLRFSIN
# Cytochrome P450 2D6 = Cytochrome P450 2D6 (Homo sapiens, UniProt P10635);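 further: CYP2D6 member of a cytochrome P450 panel assay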
# Cytochrome P450 2C19 = Cytochrome P450 2C19 (Homo sapiens, UniProt P33261); experiment: Cytochrome panel assay with activity outcomes. Panel member name: p450-cyp2c19 Compounds with AC50 equal or less than 10 uM are considered active; assay type: functional; conditions: read-out: AC50
# [4] = Luminescence Cell-Based Dose Response HTS to Identify Activators of Luciferase Translation or Activity in H4 […] Cells. [Related pubchem assays: 1829 (Project Summary), 1814 (Primary HTS)]; assay type: functional
# H4 = experiment: Luminescence Cell-Based Dose Response HTS to Identify Activators of 5'UTR Stem-Loop Driven Prion Protein mRNA Translation in H4 Neuroglioblastoma Cells. [Related pubchem assays: 1829 (Project Summary), 1814 (Primary HTS)]; assay type: functional; conditions: Homo sapiens
# [5] = target: T3, Replicative DNA helicase DnaB (Mycobacterium tuberculosis, UniProt P9WMR3); experiment: DnaB intein splicing inhibitors, dose response, biochemical, cell-free fluorescence (AID 449749); assay type: functional
# T3 sequence (P9WMR3 whole entry): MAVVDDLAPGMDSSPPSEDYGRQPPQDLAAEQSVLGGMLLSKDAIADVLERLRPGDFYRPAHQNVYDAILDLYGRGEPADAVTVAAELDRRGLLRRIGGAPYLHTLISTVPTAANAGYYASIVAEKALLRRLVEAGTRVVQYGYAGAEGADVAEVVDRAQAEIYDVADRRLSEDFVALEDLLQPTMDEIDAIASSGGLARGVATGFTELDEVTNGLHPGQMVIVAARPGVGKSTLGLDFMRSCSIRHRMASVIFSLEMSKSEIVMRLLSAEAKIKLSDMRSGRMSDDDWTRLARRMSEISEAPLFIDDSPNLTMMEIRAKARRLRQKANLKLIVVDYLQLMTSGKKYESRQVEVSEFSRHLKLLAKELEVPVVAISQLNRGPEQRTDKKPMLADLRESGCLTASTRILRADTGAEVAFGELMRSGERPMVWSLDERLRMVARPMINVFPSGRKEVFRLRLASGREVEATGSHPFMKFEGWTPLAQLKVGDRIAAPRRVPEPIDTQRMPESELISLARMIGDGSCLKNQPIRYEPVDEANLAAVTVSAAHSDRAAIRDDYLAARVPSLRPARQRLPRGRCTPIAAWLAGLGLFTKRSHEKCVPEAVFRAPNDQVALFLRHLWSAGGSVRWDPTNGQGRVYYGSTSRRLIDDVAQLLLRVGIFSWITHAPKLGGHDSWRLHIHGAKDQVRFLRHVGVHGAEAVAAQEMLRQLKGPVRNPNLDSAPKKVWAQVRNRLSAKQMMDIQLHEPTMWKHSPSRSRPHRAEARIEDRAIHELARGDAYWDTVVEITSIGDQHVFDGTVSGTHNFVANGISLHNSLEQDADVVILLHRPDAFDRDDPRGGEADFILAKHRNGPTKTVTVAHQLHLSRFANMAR
# Protein RecA = target: T4, Protein RecA (Mycobacterium tuberculosis, UniProt P9WHJ3); experiment: Fluorescence Cell-Free Homogeneous Dose Retest to Identify Inhibitors of RecA-Intein Splicing Activity. [Related pubchem assays (depositor defined):AID2097, AID2223, AID489010, AID492950]; assay type: functional
# T4 sequence (P9WHJ3 whole entry): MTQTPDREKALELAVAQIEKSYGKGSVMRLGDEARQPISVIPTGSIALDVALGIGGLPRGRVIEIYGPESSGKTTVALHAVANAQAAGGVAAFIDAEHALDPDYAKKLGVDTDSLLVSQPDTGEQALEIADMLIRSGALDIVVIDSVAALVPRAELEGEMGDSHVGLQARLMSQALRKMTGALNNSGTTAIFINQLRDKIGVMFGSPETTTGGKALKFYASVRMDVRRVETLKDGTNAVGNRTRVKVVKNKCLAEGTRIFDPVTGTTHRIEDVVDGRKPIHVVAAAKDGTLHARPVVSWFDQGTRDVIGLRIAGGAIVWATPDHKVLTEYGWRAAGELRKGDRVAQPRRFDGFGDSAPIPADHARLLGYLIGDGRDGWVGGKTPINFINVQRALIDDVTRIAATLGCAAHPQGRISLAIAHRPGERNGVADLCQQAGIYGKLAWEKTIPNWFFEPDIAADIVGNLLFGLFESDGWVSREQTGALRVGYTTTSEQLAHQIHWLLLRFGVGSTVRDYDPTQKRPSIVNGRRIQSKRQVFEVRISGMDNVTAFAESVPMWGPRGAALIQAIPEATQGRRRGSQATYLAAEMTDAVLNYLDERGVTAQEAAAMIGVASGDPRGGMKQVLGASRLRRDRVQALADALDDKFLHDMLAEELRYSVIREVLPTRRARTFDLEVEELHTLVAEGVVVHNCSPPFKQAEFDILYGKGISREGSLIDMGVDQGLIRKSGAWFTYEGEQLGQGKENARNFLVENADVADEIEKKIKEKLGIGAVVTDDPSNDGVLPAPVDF
# [6] = Luminescence Cell-Based Dose Confirmation HTS to Identify Activators of 5'UTR Stem-Loop Driven Alpha-Synuclein mRNA Translation in H4 Neuroglioblastoma Cells. [Related pubchem assays: 1829 (Project Summary), 1814 (Primary HTS)]; assay type: functional
# [7] = Trypanosoma cruzi growth suppression in host cells – NIH3T3 host cells, beta-gal luminescence, confirmation (AID 2044); assay type: functional, cell-based;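 further: intracellular parasites grown in NIH/3T3 mouse fibroblasts as host cells; luminescent beta-galactosidase reporter signal from transgenic T. cruzi replicating inside host cells; inhibitors lower the luminescence signal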
# [8] = NIH3T3 cell viability loss – ATP luminescence, mouse fibroblasts, counter-screen, dose response (AID 2010); assay type: functional, cell-based;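 further: cells exposed to compound for about 90 hours before reading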
# cells = assay type: functional
# Cytochrome P450 3A4, sequence (P08684 whole entry): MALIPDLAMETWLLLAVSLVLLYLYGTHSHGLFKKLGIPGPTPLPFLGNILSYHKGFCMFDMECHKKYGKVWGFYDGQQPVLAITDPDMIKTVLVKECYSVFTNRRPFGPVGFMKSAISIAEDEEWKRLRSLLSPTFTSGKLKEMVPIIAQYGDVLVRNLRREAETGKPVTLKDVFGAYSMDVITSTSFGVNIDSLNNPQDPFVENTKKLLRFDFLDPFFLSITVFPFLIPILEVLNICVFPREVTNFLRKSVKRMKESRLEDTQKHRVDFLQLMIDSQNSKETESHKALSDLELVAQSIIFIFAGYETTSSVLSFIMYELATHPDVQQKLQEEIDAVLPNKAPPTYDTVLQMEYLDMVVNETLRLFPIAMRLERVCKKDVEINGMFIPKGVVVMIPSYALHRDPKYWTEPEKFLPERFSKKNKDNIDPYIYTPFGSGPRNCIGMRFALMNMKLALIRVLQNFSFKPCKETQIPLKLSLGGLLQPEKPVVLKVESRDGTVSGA
# Cytochrome P450 2D6, sequence (P10635 whole entry): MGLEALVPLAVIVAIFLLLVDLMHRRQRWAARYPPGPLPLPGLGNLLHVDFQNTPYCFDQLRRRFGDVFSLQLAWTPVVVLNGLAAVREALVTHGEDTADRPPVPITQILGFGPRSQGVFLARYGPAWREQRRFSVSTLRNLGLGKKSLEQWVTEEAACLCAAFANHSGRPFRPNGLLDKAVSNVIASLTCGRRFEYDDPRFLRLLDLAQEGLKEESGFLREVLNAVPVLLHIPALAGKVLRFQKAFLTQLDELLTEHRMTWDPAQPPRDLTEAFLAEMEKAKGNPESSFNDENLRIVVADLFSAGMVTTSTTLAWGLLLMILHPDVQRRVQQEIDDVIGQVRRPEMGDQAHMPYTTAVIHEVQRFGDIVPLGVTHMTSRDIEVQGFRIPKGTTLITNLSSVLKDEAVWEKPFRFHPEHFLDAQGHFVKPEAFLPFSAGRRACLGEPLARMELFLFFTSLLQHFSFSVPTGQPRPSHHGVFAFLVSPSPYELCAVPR
# Cytochrome P450 2C19, sequence (P33261 whole entry): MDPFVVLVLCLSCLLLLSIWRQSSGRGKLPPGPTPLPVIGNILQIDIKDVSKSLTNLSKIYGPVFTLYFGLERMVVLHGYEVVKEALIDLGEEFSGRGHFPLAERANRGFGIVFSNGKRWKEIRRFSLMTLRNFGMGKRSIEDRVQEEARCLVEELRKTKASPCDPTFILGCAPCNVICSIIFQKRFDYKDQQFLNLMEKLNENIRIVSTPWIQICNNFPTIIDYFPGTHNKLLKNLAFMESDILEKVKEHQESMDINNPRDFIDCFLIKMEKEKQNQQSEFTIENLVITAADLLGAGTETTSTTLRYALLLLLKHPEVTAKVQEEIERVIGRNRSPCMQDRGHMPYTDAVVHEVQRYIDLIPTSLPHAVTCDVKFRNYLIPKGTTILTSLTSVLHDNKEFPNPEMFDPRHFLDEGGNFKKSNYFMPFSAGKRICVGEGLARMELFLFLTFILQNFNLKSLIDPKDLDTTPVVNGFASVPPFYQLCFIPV
# Cytochrome P450 2C9, sequence (P11712 whole entry): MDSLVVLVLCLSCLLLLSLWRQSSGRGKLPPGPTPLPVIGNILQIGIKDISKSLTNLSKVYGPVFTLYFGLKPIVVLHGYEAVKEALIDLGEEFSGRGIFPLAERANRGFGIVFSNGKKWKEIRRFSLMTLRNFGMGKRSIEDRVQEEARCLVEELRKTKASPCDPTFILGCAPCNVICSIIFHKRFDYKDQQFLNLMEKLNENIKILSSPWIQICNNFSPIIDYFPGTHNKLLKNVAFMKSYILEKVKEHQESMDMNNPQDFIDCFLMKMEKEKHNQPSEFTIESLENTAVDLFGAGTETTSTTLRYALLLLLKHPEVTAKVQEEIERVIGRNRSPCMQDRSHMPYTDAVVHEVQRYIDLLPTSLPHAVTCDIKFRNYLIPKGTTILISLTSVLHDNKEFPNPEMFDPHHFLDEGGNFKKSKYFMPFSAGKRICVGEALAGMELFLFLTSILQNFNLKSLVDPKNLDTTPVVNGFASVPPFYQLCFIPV
smiles,measurement,setting,value
NC(=O)CS(=O)(=O)c1nc2ccccc2n1Cc1ccccc1F,IC50,[1],> 47.1 µM (inactive)
same,EC50,[2],> 53 µM (inactive)
Cc1nnc(SC(C(=O)Nc2cc(Cl)cc(Cl)c2)c2ccccc2)nc1O (centres undefined),EC50,Streptococcus,> 150 µM (not active)
same,EC50,[3],10.6 µM (active)
C[C@@H](C(=O)O)c1ccc(C(=O)c2ccccc2)s1,AC50,Cytochrome P450 2C9,15.8 µM (inconclusive)
same,AC50,Cytochrome P450 3A4,12.6 µM (inconclusive)
same,AC50,Cytochrome P450 1A2,0.251 µM (inconclusive)
same,AC50,Cytochrome P450 2D6,7.94 µM (inconclusive)
CCOc1c(C)cc(-c2ncccc2O)cc1C,IC50,[1],> 47.1 µM (inactive)
same,EC50,[2],> 53 µM (inactive)
O=C(c1ccc(N2CCNCC2)cc1)c1cccnc1,IC50,[1],> 47.1 µM (inactive)
same,EC50,[2],> 53 µM (inactive)
O=C(Nc1cc(C(F)(F)F)ccc1-n1cncn1)c1ccc(Cl)cc1,IC50,[1],> 47.1 µM (inactive)
same,EC50,[2],> 53 µM (inactive)
CCOC(=O)c1nnc(-c2ccccc2)nc1N1CC(C)OC(C)C1 (centres undefined),IC50,[1],> 47.1 µM (inactive)
same,EC50,[2],> 53 µM (inactive)
O=C(c1cc(C(F)(F)F)cc(C(F)(F)F)c1)N1CCC2(CCCN(c3ncccn3)C2)CC1,AC50,Cytochrome P450 3A4,15.8 µM (inconclusive)
same,AC50,Cytochrome P450 1A2,31.6 µM (inconclusive)
same,AC50,Cytochrome P450 2D6,10 µM (inconclusive)
same,AC50,Cytochrome P450 2C19,20 µM (inconclusive)
COc1ccc(CNC(=O)CCc2nc3cc(S(=O)(=O)N(C)C)ccc3n2C)cc1OC,IC50,[1],> 47.1 µM (inactive)
same,EC50,[2],> 53 µM (inactive)
COc1ccc(Oc2nccc(-c3ccccc3)c2C#N)cc1,IC50,[1],30.7 µM (active)
same,EC50,[2],> 53 µM (inactive)
same,EC50,[4],9.77 µM (active)
same,EC50,H4,11.8 µM (active)
COc1ccc(CNC(=O)C(c2ccc(C)o2)N(C(=O)c2snc(C(N)=O)c2N)c2ccccc2OC)cc1 (centres undefined),AC50,[5],> 380 µM (inactive)
same,EC50,Protein RecA,> 380 µM (inactive)
Cc1cc(N2CCN(C)CC2)nc2ccc(NC(=O)CCC(=O)NCCCOC(C)C)cc12,IC50,[1],> 47.1 µM (inactive)
same,EC50,[2],> 53 µM (inactive)
c1ccc2c(COn3nnc4ccccc43)cccc2c1,EC50,[4],> 120 µM (not active)
same,EC50,[6],28.7 µM (active)
same,EC50,H4,> 120 µM (not active)
O=C(Oc1ccccc1C(=O)Nc1ccccc1)c1ccccc1Br,AC50,[5],7.25 µM (active)
same,EC50,Protein RecA,8.13 µM (active)
CCN1CCN(C(=O)c2ccc3c(=O)n(CCc4ccccc4)c(=O)[nH]c3c2)CC1,EC50,[4],63.3 µM (active)
same,EC50,[6],107 µM (active)
same,EC50,H4,10.2 µM (active)
CCCc1n[nH]c2c1C(CCC)C(C#N)=C(N)O2 (centres undefined),AC50,[5],20.5 µM (active)
same,EC50,Protein RecA,7.46 µM (active)
Cc1cc(NC(=O)Cc2ccccc2)ccc1NC(=O)c1cccs1,IC50,[1],> 47.1 µM (inactive)
same,EC50,[2],> 53 µM (inactive)
CC(Nc1ccc(Br)cc1)C(=O)Nc1cccc(S(=O)(=O)N2CCOCC2)c1 (centres undefined),IC50,[1],> 47.1 µM (inactive)
same,EC50,[2],> 53 µM (inactive)
COc1ccc(NC(=O)CN2CCCC2c2cccs2)cc1S(=O)(=O)N1CCCCC1 (centres undefined),IC50,[1],> 47.1 µM (inactive)
same,EC50,[2],> 53 µM (inactive)
COc1ccccc1NS(=O)(=O)c1ccc(N/N=C/c2c(C)nn(-c3ccccc3)c2N2CCCC2)c([N+](=O)[O-])c1,EC50,[7],0.501 µM (active)
same,IC50,[1],> 47.1 µM (inactive)
same,EC50,[2],> 53 µM (inactive)
same,EC50,[8],> 60 µM (not active)
COc1cc(/C=N\NC(=O)c2ccccc2F)ccc1Oc1ccc([N+](=O)[O-])cn1,AC50,[5],133 µM (active)
same,EC50,Protein RecA,> 380 µM (inactive)
Cc1nnc(N/N=C/c2cccc(OCc3ccc(Cl)c(Cl)c3)c2)n1N,AC50,[5],8.86 µM (active)
same,EC50,Protein RecA,4.81 µM (active)
same,IC50,cells,5.42 µM (active)
C/C(=N\NC(=O)CC#N)c1cc2ccccc2oc1=O,AC50,[5],3.44 µM (active)
same,EC50,Protein RecA,2.97 µM (active)
O=C(O)C1=CCCNC1 [GUVACINE HYDROCHLORIDE],IC50,[1],> 47.1 µM (inactive)
same,EC50,[2],> 53 µM (inactive)
